Measurements published in patent US20260355196A1, “INHIBITORS AND DEGRADERS OF PIP4K PROTEIN” (Larkspur Biosciences, Inc., priority 2023, published 2026).

Target: T1, PIP4K2C (Homo sapiens, UniProt Q8TBX8)
T1 sequence (Q8TBX8 1-421): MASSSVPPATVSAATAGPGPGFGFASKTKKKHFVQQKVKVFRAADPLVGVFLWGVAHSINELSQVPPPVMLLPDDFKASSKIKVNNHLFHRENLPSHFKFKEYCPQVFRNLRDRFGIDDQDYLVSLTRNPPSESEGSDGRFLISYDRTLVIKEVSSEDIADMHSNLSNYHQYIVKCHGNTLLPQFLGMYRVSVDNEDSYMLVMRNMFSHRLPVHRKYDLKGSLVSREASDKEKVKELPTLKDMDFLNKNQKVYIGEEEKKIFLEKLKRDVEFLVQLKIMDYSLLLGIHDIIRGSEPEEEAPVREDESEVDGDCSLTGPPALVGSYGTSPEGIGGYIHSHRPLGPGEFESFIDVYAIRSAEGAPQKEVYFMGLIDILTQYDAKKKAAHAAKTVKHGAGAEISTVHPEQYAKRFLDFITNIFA
Assay: Enzyme Binding Assay (KINOMEscan): active site-directed competition binding to an immobilized ligand
Parameters: purchased Eurofins DiscoverX, San Diego, CA 87-0007-1094
Conditions: 11-point dose response, duplicate, top concentration 5 micromolar; read-out: Pip4k2c Kd: IC50
Procedure, shortened: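 Active site-directed competition binding against an immobilized ligand. 11-point dose-response in duplicate, top concentration 5 micromolar; IC50 from a Hill equation fitted by the Levenberg-Marquardt algorithm.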

| Compound | IC50 |
| --- | --- |
| NC(=O)[C@H]1CC[C@H](Nc2ncc(F)c(-c3ccnc(N4CCCC4=O)c3)n2)CC1 [Compound 262, trans-(1r,4r)-4-((5-fluoro-4-(2-(2-oxopyrrolidin-1-yl)pyridin-4-yl)pyrimidin-2-yl)amino)cyclohexane-1-carboxamide] | < 500 nM |
| NC(=O)[C@H]1CC[C@H](Nc2ncc(F)c(-c3ccnc(N4CCOC4=O)c3)n2)CC1 [Compound 263, trans-(1r,4r)-4-((5-fluoro-4-(2-(2-oxooxazolidin-3-yl)pyridin-4-yl)pyrimidin-2-yl)amino)cyclohexane-1-carboxamide] | < 500 nM |
| NC(=O)[C@H]1CC[C@H](Nc2ncc(F)c(-c3cccc(N4CCCCC4=O)c3)n2)CC1 [Compound 264, trans-4-((5-fluoro-4-(3-(2-oxopiperidin-1-yl)phenyl)pyrimidin-2-yl)amino)cyclohexane-1-carboxamide] | < 500 nM |
| CC(=O)N[C@H]1CC[C@H](Nc2ncc(F)c(-c3ccnc(-n4ccccc4=O)c3)n2)CC1 [Compound 265, trans-N-(4-((5-fluoro-4-(2-oxo-2H-[1,2′-bipyridin]-4′-yl)pyrimidin-2-yl)amino)cyclohexyl)acetamide] | < 500 nM |
| CC(=O)N[C@H]1CC[C@H](Nc2ncc(F)c(-c3ccnc(N4CCCOC4=O)c3)n2)CC1 [Compound 266, trans-N-(4-((5-fluoro-4-(2-(2-oxo-1,3-oxazinan-3-yl)pyridin-4-yl)pyrimidin-2-yl)amino)cyclohexyl)acetamide] | < 500 nM |
| CC(=O)N[C@H]1CC[C@H](Nc2ncc(F)c(-c3cccc(N4CCOCC4=O)c3)n2)CC1 [Compound 267, trans-N-(4-((5-fluoro-4-(3-(3-oxomorpholino)phenyl)pyrimidin-2-yl)amino)cyclohexyl)acetamide] | < 500 nM |
| NC(=O)[C@H]1CC[C@H](Nc2ncc(F)c(-c3cccc(N4CCOCC4=O)c3)n2)CC1 [Compound 268, trans-4-((5-fluoro-4-(3-(3-oxomorpholino)phenyl)pyrimidin-2-yl)amino)cyclohexane-1-carboxamide] | < 500 nM |
| CC(=O)N[C@H]1CC[C@H](Nc2ncc(F)c(-c3cccc(N4CCOCC4=O)n3)n2)CC1 [Compound 270, trans-N-(4-((5-fluoro-4-(6-(3-oxomorpholino)pyridin-2-yl)pyrimidin-2-yl)amino)cyclohexyl)acetamide] | < 500 nM |
| NC(=O)[C@H]1CC[C@H](Nc2ncc(F)c(-c3cccc(N4CCOCC4=O)n3)n2)CC1 [Compound 271, trans-4-((5-fluoro-4-(6-(3-oxomorpholino)pyridin-2-yl)pyrimidin-2-yl)amino)cyclohexane-1-carboxamide] | < 500 nM |
| CC(=O)N[C@H]1CC[C@H](Nc2ncc(F)c(-c3ccnc(N4CCOCC4=O)c3)n2)CC1 [Compound 272, trans-N-(4-((5-fluoro-4-(2-(3-oxomorpholino)pyridin-4-yl)pyrimidin-2-yl)amino)cyclohexyl)acetamide] | < 500 nM |
| NC(=O)[C@H]1CC[C@H](Nc2ncc(F)c(-c3ccnc(N4CCOCC4=O)c3)n2)CC1 [Compound 273, trans-4-((5-fluoro-4-(2-(3-oxomorpholino)pyridin-4-yl)pyrimidin-2-yl)amino)cyclohexane-1-carboxamide] | < 500 nM |
| NC(=O)[C@H]1CC[C@H](Nc2ncc(F)c(-c3cccc(N4CCCCC4=O)n3)n2)CC1 [Compound 274, trans-4-((5-fluoro-4-(6-(2-oxopiperidin-1-yl)pyridin-2-yl)pyrimidin-2-yl)amino)cyclohexane-1-carboxamide] | < 500 nM |
| CC(=O)N1CCC(Nc2ncc(F)c(-c3cccc(N4CCOCC4)c3)n2)CC1 [Compound 606, 1-[4-[[5-fluoro-4-(3-morpholinophenyl)pyrimidin-2-yl]amino]-1-piperidyl]ethanone] | < 500 nM |
| NC(=O)[C@H]1CC[C@H](Nc2ncc(F)c(-c3cccc(N4CCOCC4)c3)n2)CC1 [Compound 607, trans-4-((5-fluoro-4-(3-morpholinophenyl)pyrimidin-2-yl)amino) cyclohexane-1-carboxamide] | < 500 nM |
| CC(=O)N[C@H]1CC[C@H](Nc2ncc(F)c(-c3cccc(N4CCOCC4)c3)n2)CC1 [Compound 608, trans-N-(4-((5-fluoro-4-(3-morpholinophenyl)pyrimidin-2-yl)amino)cyclohexyl)acetamide] | < 500 nM |
| CC(=O)N[C@H]1CC[C@H](Nc2ncc(F)c(-c3cccc(-c4ccccc4)c3)n2)CC1 [Compound 609, trans-N-(4-((4-([1,1′-biphenyl]-3-yl)-5-fluoropyrimidin-2-yl)amino)cyclohexyl)acetamide] | < 500 nM |
| NC(=O)[C@H]1CC[C@H](Nc2ncc(F)c(-c3cccc(-c4ccccc4)c3)n2)CC1 [Compound 610, trans-4-((4-([1,1′-biphenyl]-3-yl)-5-fluoropyrimidin-2-yl)amino)cyclohexane-1-carboxamide] | < 500 nM |

| Compound | IC50 |
| --- | --- |
| CC(=O)N1CCC(Nc2ncc(F)c(-c3cccc(-c4ccccc4)c3)n2)CC1 [Compound 611, 1-(4-((4-([1,1′-biphenyl]-3-yl)-5-fluoropyrimidin-2-yl)amino)piperidin-1-yl)ethan-1-one] | < 500 nM |
| NC(=O)[C@@H]1CCC[C@H](Nc2ncc(F)c(-c3cccc(-c4ccccc4)c3)n2)C1 [Compound 612, (1R,3S)-3-((4-([1,1′-biphenyl]-3-yl)-5-fluoropyrimidin-2-yl)amino) cyclohexane-1-carboxamide] | < 500 nM |
| CC(=O)N1CC[C@H](Nc2ncc(F)c(-c3cccc(-n4ccccc4=O)c3)n2)C1 [Compound 613, (S)-1-(3-(2-((1-acetylpyrrolidin-3-yl)amino)-5-fluoropyrimidin-4-yl)phenyl)pyridin-2(1H)-one] | < 500 nM |
| CC(=O)N1CCC(Nc2ncc(F)c(-c3cccc(-n4ccccc4=O)c3)n2)CC1 [Compound 614, 1-(3-(2-((1-acetylpiperidin-4-yl)amino)-5-fluoropyrimidin-4-yl)phenyl)pyridin-2(1H)-one] | < 500 nM |
| NC(=O)[C@H]1CC[C@H](Nc2ncc(F)c(-c3cccc(N4CCCCC4)c3)n2)CC1 [Compound 615, trans-4-((5-fluoro-4-(3-(piperidin-1-yl)phenyl)pyrimidin-2-yl)amino)cyclohexane-1-carboxamide] | < 500 nM |
| CC(=O)N[C@H]1CC[C@H](Nc2ncc(F)c(-c3cccc(N4CCCCC4)c3)n2)CC1 [Compound 616, trans-N-(4-((5-fluoro-4-(3-(piperidin-1-yl)phenyl)pyrimidin-2-yl)amino)cyclohexyl)acetamide] | < 500 nM |
| NC(=O)[C@H]1CC[C@H](Nc2ncc(F)c(-c3cccc(-n4ccccc4=O)n3)n2)CC1 [Compound 617, trans-4-((5-fluoro-4-(2-oxo-2H-[1,2′-bipyridin]-6′-yl)pyrimidin-2-yl)amino)cyclohexane-1-carboxamide] | < 500 nM |
| NC(=O)[C@H]1CC[C@H](Nc2ncc(F)c(-c3cccc(C4CC4)c3)n2)CC1 [Compound 618, trans-(1r,4r)-4-((4-(3-cyclopropylphenyl)-5-fluoropyrimidin-2-yl)amino)cyclohexane-1-carboxamide] | < 500 nM |
| CC(=O)N[C@H]1CC[C@H](Nc2ncc(F)c(-c3cccc(C4CC4)c3)n2)CC1 [Compound 619, trans-N-((1r,4r)-4-((4-(3-cyclopropylphenyl)-5-fluoropyrimidin-2-yl)amino)cyclohexyl)acetamide] | < 500 nM |
| NC(=O)[C@H]1CC[C@H](Nc2ncc(F)c(-c3cccc(C4(O)CCC4)n3)n2)CC1 [Compound 620, trans-4-((5-fluoro-4-(6-(1-hydroxycyclobutyl)pyridin-2-yl)pyrimidin-2-yl)amino)cyclohexane-1-carboxamide] | < 500 nM |
| NC(=O)[C@H]1CC[C@H](Nc2ncc(F)c(-c3cccc(N4CCCOC4=O)n3)n2)CC1 [Compound 621, trans-4-((5-fluoro-4-(6-(2-oxo-1,3-oxazinan-3-yl)pyridin-2-yl)pyrimidin-2-yl)amino)cyclohexane-1-carboxamide] | < 500 nM |
| NC(=O)[C@H]1CC[C@H](Nc2ncc(F)c(-c3ccnc(N4CCCOC4=O)c3)n2)CC1 [Compound 622, trans-4-[[5-fluoro-4-[2-(2-oxo-1,3-oxazinan-3-yl)-4-pyridyl]pyrimidin-2-yl]amino]cyclohexanecarboxamide] | < 500 nM |
| NC(=O)[C@H]1CC[C@H](Nc2ncc(F)c(-c3ccnc(-n4ccccc4=O)c3)n2)CC1 [Compound 623, trans-4-((5-fluoro-4-(2-oxo-2H-[1,2′-bipyridin]-4′-yl)pyrimidin-2-yl)amino)cyclohexane-1-carboxamide] | < 500 nM |
| CC(=O)N[C@H]1CC[C@H](Nc2ncc(F)c(-c3cccc(N4CCCOC4=O)n3)n2)CC1 [Compound 624, N-(trans-4-((5-fluoro-4-(6-(2-oxo-1,3-oxazinan-3-yl)pyridin-2-yl)pyrimidin-2-yl)amino)cyclohexyl)acetamide] | < 500 nM |
| CC(=O)N[C@H]1CC[C@H](Nc2ncc(F)c(-c3cccc(N4CCCCC4=O)n3)n2)CC1 [Compound 625, N-(trans-4-((5-fluoro-4-(6-(2-oxopiperidin-1-yl)pyridin-2-yl)pyrimidin-2-yl)amino)cyclohexyl) acetamide] | < 500 nM |
| CC(=O)N[C@H]1CC[C@H](Nc2ncc(F)c(-c3cccc(-n4ccccc4=O)n3)n2)CC1 [Compound 626, trans-N-(4-((5-fluoro-4-(2-oxo-2H-[1,2′-bipyridin]-6′-yl)pyrimidin-2-yl)amino)cyclohexyl)acetamide] | < 500 nM |
